Measurements: PubChem BioAssay (NCI)
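Tested at 5 concentrations; 48 h exposure; 96-well plates; endpoints linearly interpolated, else capped at highest concentration. Here, GI50 denotes the concentration required for 50% inhibition of growth. At the TGI there is no net growth.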

Assays:
Test in all cases: DTP human tumour cell line panel, 48 h
A549 NSCLC = test system: A549 NSCLC
BT-549 breast = test system: BT-549 breast
HT29 colon = test system: HT29 colon
UACC-62 melanoma = test system: UACC-62 melanoma
UO-31 renal = test system: UO-31 renal
M14 melanoma = test system: M14 melanoma
SK-MEL-5 melanoma = test system: SK-MEL-5 melanoma
SF-295 CNS = test system: SF-295 CNS
U251 CNS = test system: U251 CNS
KM12 colon = test system: KM12 colon
RPMI-8226 leukemia = test system: RPMI-8226 leukemia
SK-MEL-2 melanoma = test system: SK-MEL-2 melanoma
SR leukemia = test system: SR leukemia
SNB-75 CNS = test system: SNB-75 CNS
NCI-H522 lung = test system: NCI-H522 lung
HL-60(TB) leukemia = test system: HL-60(TB) leukemia
OVCAR-5 ovarian = test system: OVCAR-5 ovarian
K-562 leukemia = test system: K-562 leukemia
OVCAR-4 ovarian = test system: OVCAR-4 ovarian
SW-620 colon = test system: SW-620 colon
T-47D breast = test system: T-47D breast
MOLT-4 leukemia = test system: MOLT-4 leukemia
LOX IMVI melanoma = test system: LOX IMVI melanoma
DU-145 prostate = test system: DU-145 prostate
HCC-2998 colon = test system: HCC-2998 colon
NCI-H460 lung = test system: NCI-H460 lung
MCF7 breast = test system: MCF7 breast
SN12C renal = test system: SN12C renal
786-0 renal = test system: 786-0 renal
TK-10 renal = test system: TK-10 renal
NCI/ADR-RES ovarian = test system: NCI/ADR-RES ovarian
UACC-257 melanoma = test system: UACC-257 melanoma
NCI-H23 lung = test system: NCI-H23 lung
EKVX NSCLC = test system: EKVX NSCLC
SK-MEL-28 melanoma = test system: SK-MEL-28 melanoma
ACHN renal = test system: ACHN renal
HOP-62 NSCLC = test system: HOP-62 NSCLC
SK-OV-3 ovarian = test system: SK-OV-3 ovarian
OVCAR-8 ovarian = test system: OVCAR-8 ovarian
HCT-116 colon = test system: HCT-116 colon
RXF 393 renal = test system: RXF 393 renal
COLO 205 colon = test system: COLO 205 colon
CAKI-1 renal = test system: CAKI-1 renal
NCI-H226 lung = test system: NCI-H226 lung
HOP-92 NSCLC = test system: HOP-92 NSCLC
HCT-15 colon = test system: HCT-15 colon
SNB-19 CNS = test system: SNB-19 CNS
PC-3 prostate = test system: PC-3 prostate
MDA-MB-435 = test system: MDA-MB-435
MALME-3M melanoma = test system: MALME-3M melanoma
SF-539 CNS = test system: SF-539 CNS
HS 578T breast = test system: HS 578T breast
IGROV1 ovarian = test system: IGROV1 ovarian
SF-268 CNS = test system: SF-268 CNS
CCRF-CEM leukemia = test system: CCRF-CEM leukemia
A498 renal = test system: A498 renal
OVCAR-3 ovarian = test system: OVCAR-3 ovarian
MDA-MB-231 breast = test system: MDA-MB-231 breast

CC/C=C\C[C@H](O)C/C=C1/C(=O)C=C[C@@H]1C/C=C\CCCC(=O)OC gave a GI50 (A549 NSCLC) of 2.78 µM, a TGI (A549 NSCLC) of 7.63 µM and a GI50 (BT-549 breast) of 2.15 µM. It also gave a TGI (BT-549 breast) of 6.07 µM, a GI50 (HT29 colon) of 1.61 µM and a TGI (HT29 colon) of 3.8 µM. It also gave a GI50 (UACC-62 melanoma) of 1.05 µM, a TGI (UACC-62 melanoma) of 3.49 µM and a GI50 (UO-31 renal) of 1.75 µM. The TGI (UO-31 renal) was 3.4 µM, the GI50 (M14 melanoma) was 1.32 µM and the TGI (M14 melanoma) was 4.72 µM. It also gave a GI50 (SK-MEL-5 melanoma) of 1.54 µM, a TGI (SK-MEL-5 melanoma) of 2.91 µM and a GI50 (SF-295 CNS) of 2.26 µM. For the same molecule, the TGI (SF-295 CNS) was 5.58 µM, the GI50 (U251 CNS) was 1.63 µM and the TGI (U251 CNS) was 4.07 µM. For the same molecule, the GI50 (KM12 colon) was 1.38 µM, the TGI (KM12 colon) was 5.02 µM and the GI50 (RPMI-8226 leukemia) was 1 µM. It also gave a TGI (RPMI-8226 leukemia) of 9.21 µM, a GI50 (SK-MEL-2 melanoma) of 1.84 µM and a TGI (SK-MEL-2 melanoma) of 4.2 µM. The GI50 (SR leukemia) was 0.403 µM, the TGI (SR leukemia) was 6.18 µM and the GI50 (SNB-75 CNS) was 11.7 µM. The TGI (SNB-75 CNS) was 26 µM, the GI50 (NCI-H522 lung) was 1.03 µM and the TGI (NCI-H522 lung) was 2.43 µM. It also gave a GI50 (HL-60(TB) leukemia) of 1.74 µM, a TGI (HL-60(TB) leukemia) of 7.07 µM and a GI50 (OVCAR-5 ovarian) of 2.7 µM. The TGI (OVCAR-5 ovarian) was 6.69 µM, the GI50 (K-562 leukemia) was 0.732 µM and the TGI (K-562 leukemia) was 21.7 µM. For the same molecule, the GI50 (OVCAR-4 ovarian) was 3.48 µM, the TGI (OVCAR-4 ovarian) was 16.2 µM and the GI50 (SW-620 colon) was 0.784 µM. For the same molecule, the TGI (SW-620 colon) was 11.3 µM, the GI50 (T-47D breast) was 2.52 µM and the TGI (T-47D breast) was 12.8 µM. The GI50 (MOLT-4 leukemia) was 0.945 µM, the TGI (MOLT-4 leukemia) was 4.8 µM and the GI50 (LOX IMVI melanoma) was 0.237 µM. The TGI (LOX IMVI melanoma) was 0.609 µM, the GI50 (DU-145 prostate) was 4.07 µM and the TGI (DU-145 prostate) was 15.2 µM. For the same molecule, the GI50 (HCC-2998 colon) was 2.09 µM, the TGI (HCC-2998 colon) was 3.68 µM and the GI50 (NCI-H460 lung) was 3.26 µM. The TGI (NCI-H460 lung) was 11.2 µM, the GI50 (MCF7 breast) was 0.376 µM and the TGI (MCF7 breast) was 3.62 µM. The GI50 (SN12C renal) was 2.55 µM, the TGI (SN12C renal) was 10.2 µM and the GI50 (786-0 renal) was 1.86 µM. The TGI (786-0 renal) was 3.62 µM, the GI50 (TK-10 renal) was 3.29 µM and the TGI (TK-10 renal) was 9.13 µM. For the same molecule, the GI50 (NCI/ADR-RES ovarian) was 2.61 µM, the TGI (NCI/ADR-RES ovarian) was 10.8 µM and the GI50 (UACC-257 melanoma) was 2.36 µM. It also gave a TGI (UACC-257 melanoma) of 7.09 µM, a GI50 (NCI-H23 lung) of 1.75 µM and a TGI (NCI-H23 lung) of 4.25 µM. For the same molecule, the GI50 (EKVX NSCLC) was 3.11 µM, the TGI (EKVX NSCLC) was 12.4 µM and the GI50 (SK-MEL-28 melanoma) was 1.81 µM. It also gave a TGI (SK-MEL-28 melanoma) of 4.37 µM, a GI50 (ACHN renal) of 2 µM and a TGI (ACHN renal) of 4.27 µM. The GI50 (HOP-62 NSCLC) was 1.48 µM, the TGI (HOP-62 NSCLC) was 5.15 µM and the GI50 (SK-OV-3 ovarian) was 5.37 µM. For the same molecule, the TGI (SK-OV-3 ovarian) was 15.4 µM, the GI50 (OVCAR-8 ovarian) was 2.61 µM and the TGI (OVCAR-8 ovarian) was 11.1 µM. The GI50 (HCT-116 colon) was 0.572 µM, the TGI (HCT-116 colon) was 2.92 µM and the GI50 (RXF 393 renal) was 1.91 µM. It also gave a TGI (RXF 393 renal) of 3.58 µM, a GI50 (COLO 205 colon) of 1.84 µM and a TGI (COLO 205 colon) of 4.02 µM. For the same molecule, the GI50 (CAKI-1 renal) was 3.11 µM, the TGI (CAKI-1 renal) was 12.7 µM and the GI50 (NCI-H226 lung) was 2.17 µM. The TGI (NCI-H226 lung) was 4.63 µM, the GI50 (HOP-92 NSCLC) was 3.22 µM and the TGI (HOP-92 NSCLC) was 8.67 µM. It also gave a GI50 (HCT-15 colon) of 0.538 µM, a TGI (HCT-15 colon) of 2.79 µM and a GI50 (SNB-19 CNS) of 2.88 µM. The TGI (SNB-19 CNS) was 14 µM, the GI50 (PC-3 prostate) was 2.7 µM and the TGI (PC-3 prostate) was 7.29 µM. It also gave a GI50 (MDA-MB-435) of 1.19 µM, a TGI (MDA-MB-435) of 10 µM and a GI50 (MALME-3M melanoma) of 2.14 µM. The TGI (MALME-3M melanoma) was 6.24 µM, the GI50 (SF-539 CNS) was 2.75 µM and the TGI (SF-539 CNS) was 7.33 µM. The GI50 (HS 578T breast) was 5.18 µM, the TGI (HS 578T breast) was 40.1 µM and the GI50 (IGROV1 ovarian) was 3.05 µM. It also gave a TGI (IGROV1 ovarian) of 8.71 µM, a GI50 (SF-268 CNS) of 2.56 µM and a TGI (SF-268 CNS) of 11.8 µM. For the same molecule, the GI50 (CCRF-CEM leukemia) was 0.368 µM, the TGI (CCRF-CEM leukemia) was 11.4 µM and the GI50 (A498 renal) was 4.91 µM. It also gave a TGI (A498 renal) of 14.4 µM, a GI50 (OVCAR-3 ovarian) of 0.692 µM and a TGI (OVCAR-3 ovarian) of 2.13 µM. For the same molecule, the GI50 (MDA-MB-231 breast) was 2.94 µM and the TGI (MDA-MB-231 breast) was 9.23 µM.
